Paper PMC10056636, “3-Amino-Substituted Analogues of Fusidic Acid as Membrane-Active Antibacterial Compounds” (Membranes, 2023)
≈ marks a conversion by molar mass, not a printed value. Where “and” joins values, the source holds several entries; their conditions need not be identical. Identical values can stand only once.

Columns and labels:
[1] = tested on: Cryptococcus neoformans (ATCC 208821); assay: Antifungal growth inhibition (MIC, CO-ADD); conditions: inhibition ≥70%, two replicates per cell
Procedure: Antimicrobial, cytotoxicity, and hemolytic activity screening of the synthesized derivatives was carried out in the CO-ADD (The Community for Antimicrobial Drug Discovery) (http://www.co-add.org, accessed on 24 November 2020) and included analysis for antibacterial properties, cytotoxicity, and hemolytic activity.
The hit confirmation test included five bacteria, Escherichia coli (ATCC 25922), Klebsiella pneumoniae (ATCC 700603), Acinetobacter baumannii (ATCC 19606), Pseudomonas aeruginosa (ATCC 27853), and Staphylococcus aureus (ATCC 43300), and two fungi, Candida albicans (ATCC 90028) and Cryptococcus neoformans (ATCC 208821). […] The compounds were also screened for hemolysis of human red blood cells (human whole blood, strain ARCBS 5400 00150).
Samples were prepared in DMSO and water to a final testing concentration of 32 µg/mL or 20 µM (unless otherwise indicated in the data sheet) and serially diluted twofold up to 8 times. Each sample concentration was prepared in 384-well plates: non-binding surface plate (NBS; Corning 3640) for each bacterial/fungal strain, tissue-culture treated (TC-treated; Corning 3712/3764) black for mammalian cell types and polypropylene 384-well plates (PP; Corning 3657) for hemolysis assays. The final DMSO concentration was maintained to a maximum of 0.5%. All sample preparation procedures were performed using liquid-handling robots. All screening was performed as two replica (n = 2), with both replicas on different assay plates, but from single plating and performed in a single screening experiment (microbial incubation). In addition, two values are used as quality controls for individual plates: Z′-Factor [1 − (3* (sd(NegCtrl) + sd(PosCtrl))/(average(PosCtrl)-average(NegCtrl)))] and standard antibiotic controls at different concentrations (>MIC and <MIC).
Fungi strains were cultured for 3 days on yeast extract-peptone dextrose (YPD) agar at 30 °C. A yeast suspension of 1 × 10^6 to 5 × 10^6 CFU/mL (as determined by OD530) was prepared from five colonies. The suspension was subsequently diluted and added to each well containing a test compound, giving a final cell density of fungi suspension of 2.5 × 10^3 CFU/mL and a total volume of 50 µL. All plates were covered and incubated at 35 °C for 36 h without shaking.
The absorbance was measured using a Biotek Multiflo Synergy HTX plate reader. In both cases, the percentage of growth inhibition was calculated for each well, using the negative control (media only) and positive control (fungi without inhibitors) in the same plate. […] In addition, the maximal percentage of growth inhibition is reported as DMax, indicating any compounds with marginal activity.
Fluconazole was used as a positive fungal inhibitor standard for C. albicans and C. neoformans. […] The quality control (QC) of the assays was performed using Z′-factors calculated from the negative (media only) and positive controls (bacterial, fungal, or cell culture without inhibitor) and the standards.

[2] = Ion permeability and rupture of planar lipid bilayers; conditions: for concentration up to which addition did not increase the ion permeability of the lipid bilayers: DPhPC uncharged membranes; for Cbr (threshold concentration required to rupture the bilayer): DPhPC, 0.1 M KCl, pH 7.4, 100 mV
Procedure: Synthetic 1,2-diphytanoyl-sn-glycero-3-phosphocholine (DPhPC) and 1,2-diphytanoyl-sn-glycero-3-phospho-(1′-rac-glycerol) (DPhPG) were purchased from Avanti® Polar Lipids (Avanti Polar Lipids, Inc., Alabaster, AL, USA). A KCl solution (0.1 M) was buffered with 5 mM HEPES, pH 7.4. Bilayer lipid membranes were prepared from DPhPC or DPhPG using a monolayer-opposition technique on a 50 µm-diameter aperture in a 10 µm-thick Teflon film separating the cis- and trans-compartments of the Teflon chamber. Experiments were performed in chambers containing 0.1 M KCl, 5 mM Hepes-KOH, pH 7.4.
The test compounds (4, 20, 22) were added to the cis-chamber as 10 mg/mL solutions in ethanol (to mimic the physiologically relevant conditions) up to the final concentrations and the effects of the compounds on the ion permeability of the model lipid membranes were studied. Ag/AgCl electrodes with 1.5% agarose/2 M KCl bridges were used to apply the transmembrane voltage (V) and measure the transmembrane current (I). ‘Positive voltage’ refers to the case in which the cis-side compartment is positive with respect to the trans-side. All experiments were performed at room temperature.
The current was measured using an Axopatch 200B amplifier (Molecular Devices, LLC, Orlean, CA, USA) in voltage clamp mode. Data were digitized using a Digidata 1440A and analyzed using pClamp 10.0 (Molecular Devices, LLC, Orlean, CA, USA) and Origin 8.0 (OriginLab Corporation, Northampton, MA, USA). The data were acquired at a sampling frequency of 5 kHz using low-pass filtering at 200 Hz.
The threshold concentrations (Cbr) of the derivatives required to rupture the bilayers composed of DPhPC or DPhPG at a transmembrane voltage of 100 mV were determined. Cbr-values were averaged from 3 to 4 bilayers and presented as mean ± standard error (p ≤ 0.05).

[3] = tested on: human embryonic kidney cell line HEK293 (ATCC CRL-1573); assay: in vitro; type: cell-based; conditions: human, 20 h
Procedure: (§1) HEK293 cells were counted manually in a Neubauer hemocytometer and then plated in 384-well plates containing the test compounds to give a density of 5000 cells per well in a final volume of 50 µL. DMEM supplemented with 10% FBS was used as the growth medium, and the cells were incubated together with the compounds for 20 h at 37 °C in 5% CO2.
(§2) The cytotoxicity (or cell viability) was measured by fluorescence, ex: 560/10 nm, em: 590/10 nm (F560/590), after addition of 5 µL of 25 µg/mL resazurin (2.3 µg/mL final concentration) and after incubation for further 3 h at 37 °C in 5% CO2. The fluorescence intensity was measured using a Tecan M1000 Pro monochromator plate reader with automatic gain control. The CC50 (50% cytotoxicity concentration) values were calculated by curve fitting of inhibition vs. log(concentration) using a sigmoidal dose–response function, with variable fitting values for bottom, top, and slope. In addition, the maximal percentage of cytotoxicity is reported as DMax, indicating any compounds with partial cytotoxicity. The curve fitting was implemented using Pipeline Pilot’s dose–response component. The results were similar to those obtained by other curve-fitting tools, such as GraphPad’s Prism and IDBS’s XlFit. Any value with > indicated samples with no activity (low DMax value) or samples with CC50 values above the maximum tested concentration (higher DMax value).
(§3) In addition, samples were flagged as partially cytotoxic if DMax ≥ 50%, even for CC50 > the maximum tested concentration.
(§4) Tamoxifen served as a positive cytotoxicity standard. Melittin was used as a positive hemolytic standard.

in vitro = type: cell-based, human; conditions: human, CC50
Procedure: as §1, §2, §3, §4

human red blood cells = assay: Hemolysis assay; type: cell-based; conditions: human, 1 h
Procedure: (§5) Human whole blood was washed three times with 3 volumes of 0.9% NaCl and then resuspended in the same medium to a concentration of 0.5 × 10^8 cells/mL, as determined by manual cell count in a Neubauer hemocytometer. The washed cells were then added to 384-well plates containing the test compounds to a final volume of 50 µL. After shaking on a plate shaker for 10 min, the plates were incubated for 1 h at 37 °C. After incubation, the plates were centrifuged at 1000× g for 10 min to pellet the cells and debris; 25 µL of the supernatant was then transferred to a polystyrene 384-well assay plate.
(§6) Hemolysis was monitored by measuring the supernatant absorbance at […] (OD405). The absorbance was measured using a Tecan M1000 Pro monochromator plate reader. HC10 and HC50 (10% and 50% hemolysis concentrations, respectively) were calculated by curve fitting of inhibition vs. log(concentration) using a sigmoidal dose–response function with variable fitting values for top, bottom, and slope. In addition, the maximal percentage of hemolysis is reported as DMax, indicating any compounds with partial hemolysis. The curve fitting was implemented using Pipeline Pilot’s dose–response component. […] Any value with > indicated sample with no activity (low DMax value) or samples with HC10 values above the maximum tested concentration (higher DMax value).
(§7) In addition, samples were flagged as partially hemolytic if DMax ≥ 50%, even for HC10 > the maximum tested concentration. […]

Hemolysis assay = type: cell-based, human; conditions: human, Dmax (maximal percentage of hemolysis)
Procedure: as §5, §6, §7

COC(=O)/C(CCC=C(C)C)=C1\[C@@H](OC(C)=O)C[C@@]2(C)[C@@H]1C[C@@H](O)[C@@H]1[C@@]3(C)CC[C@H](NCCCNCCCCNCCCN)[C@@H](C)C3CC[C@@]12C (stereo partly drawn) [Compound 22, Methyl (2Z)-2-[(3β,4α,8α,11α,14β,16β)-16-(acetyloxy)-3-{[3-({4-[(3-aminopropyl)amino]butyl}amino)propyl]amino}-11-hydroxy-4,8,10,14-tetramethylgonan-17-ylidene]-6-methylhept-5-enoate]
MIC ([1]; C. neoformans): 1.0 µg/mL and 2.0 µg/mL | MIC ([1]; Cryptococcus neoformans, ATCC208821, C. neoformans): 1 µg/mL (≈ 1.4 µM) | concentration up to which addition did not increase the ion permeability of the lipid bilayers [2]: ≤ 250 µg/mL | Cbr (threshold concentration required to rupture the bilayer) [2]: 250 ± 11 µg/mL | CC50 [3]: 18.1 µg/mL (≈ 25.3 µM) | CC50 at 20 h (in vitro): 18.8 µg/mL (≈ 26.3 µM) | Dmax (maximal percentage of hemolysis) (human red blood cells): 11.3% | HC50 (human red blood cells): >32 >32 µg/mL | hemolysis at 1 h (Hemolysis assay): 15.1%

COC(=O)/C(CCC=C(C)C)=C1\[C@@H](OC(C)=O)C[C@@]2(C)[C@@H]1C[C@@H](O)[C@@H]1[C@@]3(C)CC[C@H](NCCCNCCCCN)[C@@H](C)C3CC[C@@]12C (stereo partly drawn) [Compound 20, Methyl (2Z)-2-[(3β,4α,8α,11α,14β,16β)-16-(acetyloxy)-3-({3-[(4aminobutyl)amino]propyl}amino)-11-hydroxy-4,8,10,14-tetramethylgonan-17-ylidene]-6-methylhept-5-enoate]
concentration up to which addition did not increase the ion permeability of the lipid bilayers [2]: ≤ 275 µg/mL | Cbr (threshold concentration required to rupture the bilayer) [2]: 275 ± 25 µg/mL | CC50 [3]: 14.9 µg/mL (≈ 22.6 µM) | CC50 at 20 h (in vitro): 15.4 µg/mL (≈ 23.4 µM) | Dmax (maximal percentage of hemolysis) (human red blood cells): 60.5% | hemolysis at 1 h (Hemolysis assay): 61.8%
